Source: patent US20260325542A1, “CANCER TARGETING COMPLEX, AND COMPOSITION COMPRISING SAME FOR PREVENTING OR TREATING CANCER” (EWHA UNIVERSITY - INDUSTRY COLLABORATION FOUNDATION, priority 2023, published 2026)
pIC50: −log10 of the molar value. Entries after “also recorded” stand apart in the source; their conditions may differ.

Assays:
cancer tissue = test: TUNEL analysis of excised cancer tissue; assay type: in vivo, mouse; conditions: cancer tissue excised after 15 days
Description: Cancer animal models were prepared by inoculating 1×10^6 4T1 cells into the left thigh of the mice, and raising them until the tumor volume reached 50-80 mm^3.
(§1) The control group was administered saline (10 mg/kg) once every 3 days for 15 days through the tail vein (total 4 administrations). The comparison group was administered ARV-771 (10 mg/kg) once every 3 days for 15 days through the tail vein (total 4 administrations). The example group was administered ECMal-PROTAC 10 mg/kg (wquiv. to ARV-771) of example 1 once every 3 days for 15 days through the tail vein (total 4 administrations).
The control group, the comparison group, and the example group were euthanized after 15 days, and major organs (heart, liver, lung, spleen, kidney) and cancer tissue were excised.
Furthermore, to analyze cancer cell apoptosis, TUNEL (terminal deoxynucleotidyl transferase dUTP nick end labeling) analysis was performed on cancer tissue excised from the control group, the comparison group, and the example group. Next, histological analysis was performed by H&E (hematoxylin & eosin) staining of the major organ tissues and cancer tissue of each excised group.

BRD4 and c-Myc = test: Immunofluorescence of excised cancer tissue (DAPI, anti-BRD4, anti-c-Myc); assay type: in vivo, mouse; conditions: vs comparison group and control group
Description: as §1
FIG. 33 is an image taken with a confocal laser scanning microscope after staining cancer tissue excised from the control group (Control, Saline), the comparison group (ARV-771, intravenous injection), and the example group (ECMal-PROTAC, intravenous injection) with DAPI, anti-BRD4, and anti-c-Myc.

BRD4 [1] = molecular target: T1, BRD4 (Mus musculus, UniProt Q9ESU6); test: Western blot of excised cancer tissue, BRD4; assay type: in vivo
T1 construct: Western blot after PROTAC (ARV-771 release, VHL recruiting)
Description: as §1

Bcl-2 [2] = test: Western blot, Bcl-2 level in 4T1 cells; assay type: cell-based, mouse; conditions: 0 to 10 μM, 24 hours
Description: Accordingly, Western blot analysis was performed to confirm the anticancer ability by evaluating the presence or absence of degradation of BRD4 and other related proteins (e.g., c-Myc and Bcl-2) when cancer cells were treated with the complex for cancer targeting (ECMal-PROTAC) of example 1. The complex for cancer targeting (ECMal-PROTAC) of example 1 and ARV-771 were prepared as samples.
First, 1×10^5 4T1 cells were dispensed into each well of a 6-well culture plate and cultured for 24 hours at 37° C. and 5% carbon dioxide atmosphere. The cell culture medium was supplemented with various concentrations of ARV-771 (0 to 10 μM) or the complex for cancer targeting (ECMal-PROTAC) of example 1 (0 to 10 μM), and cultured at 37° C. for 24 hours. After the culture was completed, the cells were washed 3 times with PBS, and lysed with a lysis buffer containing 1% […]. Cell debris from the recovered lysate was removed by centrifugation at 12,000 rpm for 25 minutes. After recovering the supernatant, the protein amount was measured using a BCA kit. The supernatant was loaded onto a 10% sodium dodecyl sulfate-polyacrylamide gel. Electrophoresis (SDS-PAGE) was performed, followed by blotting onto a polyvinylidene difluoride (PVDF) membrane. […] The immunoreactive bands on the PVDF membrane were analyzed through an ECL (enhanced chemiluminescence) system.

4T1 cells = test: CCK-8 assay, toxicity on cancer cells; assay type: cell-based, mouse; conditions: CCK-8, 48 hours
Description: The toxicity of ARV-771 and ECMal-PROTAC on cancer cells was analyzed by the CCK-8 (cell counting kit-8) assay. 4T1 cells were dispensed into a 96-well culture plate at 3×10^3 cells per well. They were cultured for 24 hours at 37° C. and 5% carbon dioxide atmosphere. The cells were treated with different concentrations of ARV-771 (0.01 to 100 μM), the complex for cancer targeting (ECMal-PROTAC) of example 1 (0.01 to 100 μM), and the complex for cancer targeting (Mal-PROTAC) of example 2 (0.01 to 100 μM) separately, and cultured for 48 hours. After exposing each well to 10% CCK-8-containing culture media for 30 minutes, the viability of 4T1 cells treated with ARV-771 or 4T1 cells treated with ECMal-PROTAC or Mal-PROTAC was analyzed with a microplate reader. The change in cell viability according to the concentration of ARV-771 or ECMal-PROTAC or Mal-PROTAC was calculated using GraphPad Prism 8 software (GraphPad Software, San Diego, CA, USA) by fitting the IC50 (haf-maximal inhibitory concentration) value.

Bcl-2 [3] = test: Western blot of excised cancer tissue, Bcl-2; assay type: in vivo, mouse
Description: as §1

BRD4 [4] = molecular target: T1, BRD4; test: DAB staining of excised cancer tissue; assay type: in vivo; conditions: FIG. 34
Description: as §1
FIG. 34 is the result of DAB staining of cancer tissue excised from the control group, the comparison group, and the example group.

liver tissue = test: TUNEL analysis of liver tissue; assay type: in vivo, mouse; conditions: excised after 15 days
[5] = Particle size by DLS before and after binding to albumin; assay type: physicochemical; conditions: before and after binding to BSA
Description: A BSA solution (200 μM) diluted with PBS was co-incubated by mixing it with an ECMal-PROTAC aqueous solution (140 μM) of example 1 at a 1:1 volume ratio.

[6] = Western blot, vs ARV-771 group (so in the source)

Cc1ncsc1-c1ccc([C@H](C)NC(=O)[C@@H]2C[C@@H](OC(=O)CCCCn3nnc4c3CCC3C(CC4)C3COC(=O)NCCOCCOCCNC(=O)CCN3C(=O)C=CC3=O)CN2C(=O)[C@@H](NC(=O)COCCCOCCNC(=O)C[C@@H]2N=C(c3ccc(Cl)cc3)c3c(sc(C)c3C)-n3c(C)nnc32)C(C)(C)C)cc1 (some centres unmarked) [ECMal-PROTAC]
cancer cell apoptosis (TUNEL) (cancer tissue): cancer cell apoptosis was induced throughout the entire cancer tissue
fluorescence signals related to c-Myc and BRD4 (BRD4 and c-Myc): weaker fluorescence signals
BRD4 level in cancer tissue vs control (BRD4 [1]; Western blot, 10 mg/kg): much lower levels
BRD4 level in cancer tissue, example group vs comparison group (BRD4 [1]; [6]): no significant difference
relative expression level of BRD4, fold lower than control group (BRD4 [1]; cancer tissue, FIG. 32): 7.5 times
Bcl-2 level (Bcl-2 [2]): reduces the levels; also recorded: reduced expression
IC50 compared to native ARV-771 (4T1 cells): slight increase in IC50 compared to native ARV-771
pIC50 (4T1 cells; Mus musculus, 4T1, FIGS. 15A and 15B, read-out: IC50 against cancer cells): 5.11
Bcl-2 level in cancer tissue vs control (Bcl-2 [3]; Western blot, 10 mg/kg): much lower levels
Bcl-2 level in cancer tissue, example group vs comparison group (Bcl-2 [3]; [6]): no significant difference
relative expression level of Bcl-2, fold lower than control group (Bcl-2 [3]; cancer tissue, FIG. 32): 2.3 times
BRD4 deficiency (DAB staining) (BRD4 [4]): BRD4 deficiency was confirmed
apoptosis rate in liver tissue vs control (TUNEL) (liver tissue): no significant difference in the apoptosis rate
change in particle size on binding to albumin [5]: no significant change in particle size
